# Test results as given in patent publication US6673549B1, “Genes expressed in C3A liver cell cultures treated with steroids” (Incyte Corporation, priority 2000, dated 2004).
# What was measured:
# [1] = intranasal; cited from earlier work
# human C3A liver cells = assay: Microarray differential gene expression in human C3A liver cell cultures treated with steroids; format: cell-based
# Excerpt: Incyte clones represent template sequences derived from the LWESEQ GOLD assembled human sequence database (Incyte Genomics). In cases where more than one clone was available for a particular template, the 5′-most clone in the template was used on the microarray. The HUMAN GENOME GEM series 1-4 microarrays (Incyte Genomics) contain 28,626 array elements which represent 10,068 annotated clusters and 18,558 unannotated clusters. For the UNIGEM series microarrays (Incyte Genomics), Incyte clones were mapped to non-redundant Unigene clusters (Unigene database (build 46), NCBI; Shuler (1997) J Mol Med 75:694-698), and the 5′ clone with the strongest BLAST alignment (at least 90% identity and 100 bp overlap) was chosen, verified, and used in the construction of the microarray. The UNIGEM V microarray (Incyte Genomics) contains 7075 array elements which represent 4610 annotated genes and 2,184 unannotated clusters.
# To construct microarrays, cDNAs were amplified from bacterial cells using primers complementary to vector sequences flanking the cDNA insert. […] Amplified cDNAs were then purified using […]-400 columns (APB). Purified cDNAs were immobilized on polymer-coated glass slides. Glass microscope slides (Corning, Corning N.Y.) were cleaned by ultrasound in 0.1% SDS and acetone, with extensive distilled water washes between and after treatments. Glass slides were etched in 4% hydrofluoric acid (VWR Scientific Products, West Chester Pa.), washed thoroughly in distilled water, and coated with 0.05% aminopropyl silane (Sigma Aldrich) in 95% ethanol. Coated slides were cured in a 110° C. oven. cDNAs were applied to the coated glass substrate using a procedure described in U.S. Pat. No. 5,807,522. One microliter of the cDNA at an average concentration of 100 ng/μl was loaded into the open capillary printing element by a high-speed robotic apparatus which then deposited about 5 nl of cDNA per slide.
# Microarrays were UV-crosslinked using a […] UV-crosslinker (Stratagene), and then washed at room temperature once in 0.2% SDS and three times in distilled water. Non-specific binding sites were blocked by incubation of microarrays in 0.2% casein in phosphate buffered saline (Tropix, Bedford Mich.) for 30 minutes at 60° C. followed by washes in 0.2% SDS and distilled water as before.
# In all cases, mRNA from untreated early confluent C3A cells were prepared in parallel as described below.
# Cells were harvested and lysed in 1 ml of TRIZOL reagent (5×10^6 cells/ml; Life Technologies). Lysates were vortexed thoroughly, incubated at room temperature for 2-3 minutes, and extracted with 0.5 ml chloroform. The extract was mixed, incubated at room temperature for 5 minutes, and centrifuged at 15,000 rpm for 15 minutes at 4° C. The aqueous layer was collected, and an equal volume of isopropanol was added. Samples were mixed, incubated at room temperature for 10 minutes, and centrifuged at 15,000 rpm for 20 minutes at 4° C. The supernatant was removed, and the RNA pellet was washed with 1 ml of 70% ethanol, centrifuged at 15,000 rpm at 4° C., and resuspended in RNAse-free water. The concentration of the RNA was determined by measuring the optical density at 260 nm.
# Poly(A) RNA was prepared using an OLIGOTEX mRNA kit (Qiagen) with the following modifications: OLIGOTEX beads were washed in tubes instead of on spin columns, resuspended in elution buffer, and then loaded onto spin columns to recover mRNA. To obtain maximum yield, the mRNA was eluted twice.
# Each poly(A) RNA sample was reverse transcribed using MMLV reverse-transcriptase, 0.05 pg/μl oligo-d(T) primer (21mer), 1× first strand buffer, 0.03 units/ul RNAse inhibitor, 500 uM dATP, 500 uM dGTP, 500 uM dTTP, 40 uM dCTP, and 40 uM either dCTP-Cy3 or dCTP-Cy5 (APB).
structure (smiles),measurement,setting,value
C[C@H]1C[C@H]2[C@@H]3CCC4=CC(=O)C=C[C@]4(C)[C@@]3(Cl)[C@@H](O)C[C@]2(C)[C@@]1(O)C(=O)CO [beclomethasone],anti-inflammatory and vasoconstrictive effects relative to hydrocortisone,[1],5000 times greater
same,Ave DE [log2] (C3A treated with steroid),human C3A liver cells; Clone ID 400654,1.06 log2
same,Ave DE [log2] (C3A treated with steroid),human C3A liver cells; Clone ID 517374,0.40 log2
same,Ave DE [log2] (C3A treated with steroid),human C3A liver cells; Clone ID 615776,1.01 log2
same,Ave DE [log2] (C3A treated with steroid),human C3A liver cells; Clone ID 654246,−0.95 log2
same,Ave DE [log2] (C3A treated with steroid),human C3A liver cells; Clone ID 668460,1.23 log2
same,Ave DE [log2] (C3A treated with steroid),human C3A liver cells; Clone ID 963331,−1.01 log2
same,Ave DE [log2] (C3A treated with steroid),human C3A liver cells; Clone ID 1275616,0.94 log2
same,Ave DE [log2] (C3A treated with steroid),human C3A liver cells; Clone ID 1323616,1.09 log2
same,Ave DE [log2] (C3A treated with steroid),human C3A liver cells; Clone ID 1329625,0.35 log2
same,Ave DE [log2] (C3A treated with steroid),human C3A liver cells; Clone ID 1573840,0.97 log2
same,Ave DE [log2] (C3A treated with steroid),human C3A liver cells; Clone ID 1604437,0.47 log2
same,Ave DE [log2] (C3A treated with steroid),human C3A liver cells; Clone ID 1662870,−0.76 log2
same,Ave DE [log2] (C3A treated with steroid),human C3A liver cells; Clone ID 1697719,−0.69 log2
same,Ave DE [log2] (C3A treated with steroid),human C3A liver cells; Clone ID 1723834,0.47 log2
same,Ave DE [log2] (C3A treated with steroid),human C3A liver cells; Clone ID 1857044,0.61 log2
same,Ave DE [log2] (C3A treated with steroid),human C3A liver cells; Clone ID 1876829,−1.00 log2
same,Ave DE [log2] (C3A treated with steroid),human C3A liver cells; Clone ID 1951845,1.01 log2
same,Ave DE [log2] (C3A treated with steroid),human C3A liver cells; Clone ID 1995520,0.82 log2
same,Ave DE [log2] (C3A treated with steroid),human C3A liver cells; Clone ID 2046717,0.98 log2
same,Ave DE [log2] (C3A treated with steroid),human C3A liver cells; Clone ID 2086783,−0.88 log2
same,Ave DE [log2] (C3A treated with steroid),human C3A liver cells; Clone ID 2095329,−0.99 log2
same,Ave DE [log2] (C3A treated with steroid),human C3A liver cells; Clone ID 2285181,−0.88 log2
same,Ave DE [log2] (C3A treated with steroid),human C3A liver cells; Clone ID 2287703,−0.99 log2
same,Ave DE [log2] (C3A treated with steroid),human C3A liver cells; Clone ID 2287724,−1.05 log2
same,Ave DE [log2] (C3A treated with steroid),human C3A liver cells; Clone ID 2294968,−0.73 log2
same,Ave DE [log2] (C3A treated with steroid),human C3A liver cells; Clone ID 2372040,−1.05 log2
same,Ave DE [log2] (C3A treated with steroid),human C3A liver cells; Clone ID 2430165,1.04 log2
same,Ave DE [log2] (C3A treated with steroid),human C3A liver cells; Clone ID 2506425,0.88 log2
same,Ave DE [log2] (C3A treated with steroid),human C3A liver cells; Clone ID 2636759,0.81 log2
same,Ave DE [log2] (C3A treated with steroid),human C3A liver cells; Clone ID 2695371,0.51 log2
same,Ave DE [log2] (C3A treated with steroid),human C3A liver cells; Clone ID 2947188,−1.02 log2
same,Ave DE [log2] (C3A treated with steroid),human C3A liver cells; Clone ID 3047143,1.10 log2
same,Ave DE [log2] (C3A treated with steroid),human C3A liver cells; Clone ID 3057272,0.83 log2
same,Ave DE [log2] (C3A treated with steroid),human C3A liver cells; Clone ID 3528232,0.38 log2
same,Ave DE [log2] (C3A treated with steroid),human C3A liver cells; Clone ID 3687607,1.03 log2
same,Ave DE [log2] (C3A treated with steroid),human C3A liver cells; Clone ID 3960194,1.00 log2
same,Ave DE [log2] (C3A treated with steroid),human C3A liver cells; Clone ID 3973687,1.23 log2
same,Ave DE [log2] (C3A treated with steroid),human C3A liver cells; Clone ID 3973887,−0.91 log2
same,Ave DE [log2] (C3A treated with steroid),human C3A liver cells; Clone ID 4087621,0.89 log2
same,Ave DE [log2] (C3A treated with steroid),human C3A liver cells; Clone ID 4215034,1.13 log2
same,Ave DE [log2] (C3A treated with steroid),human C3A liver cells; Clone ID 4253663,−0.70 log2
same,Ave DE [log2] (C3A treated with steroid),human C3A liver cells; Clone ID 4284270,−0.70 log2
same,Ave DE [log2] (C3A treated with steroid),human C3A liver cells; Clone ID 4855265,1.00 log2
same,Ave DE [log2] (C3A treated with steroid),human C3A liver cells; Clone ID 4863677,1.09 log2
same,Ave DE [log2] (C3A treated with steroid),human C3A liver cells; Clone ID 4894508,−0.93 log2
same,Ave DE [log2] (C3A treated with steroid),human C3A liver cells; Clone ID 5091002,−1.13 log2
